Experimental data: article PMC9774438, “Effects of Synthetic Short Cationic Antimicrobial Peptides on the Catalytic Activity of Myeloperoxidase, Reducing Its Oxidative Capacity” (Antioxidants, 2022)
Entries after “also recorded” stand apart in the source; their conditions may differ.

Experiments:
Type in all cases: biochemical
myeloperoxidase (MPO) [1] = molecular target: T1, myeloperoxidase (MPO) (Homo sapiens, UniProt P05164); test: Dityrosine fluorescence detection during MPO/H2O2 reaction; conditions: 40 μM peptide, 0.4 μM MPO heme, 50 μM H2O2, 10 mM Na-phosphate pH 7.4, 0.2 mM DTPA, λex 315 nm
T1 construct: Native myeloperoxidase (MPO) was obtained from human leukocyte extract by successive chromatography on heparin-Sepharose and phenyl-agarose; from tissue; host or cells: human leukocyte extract
Experimental: Formation of dityrosine during the MPO reaction with CAMPs was monitored by fluorescence on a CM 2203 spectrofluorometer (Minsk, Belarus) with an excitation wavelength of 315 nm. Emission spectra were recorded between 350 nm and 500 nm, with the maximum being at 405–410 nm. MPO (0.4 μM) in a 1 mL cuvette was mixed with CAMP (40 μM) at pH 7.4 in 10 mM Na-phosphate buffer supplemented with 0.2 mM DTPA, and the starting emission spectrum was recorded. Succeeding spectra were taken at time intervals following the addition of 50 μM H2O2 to the continuously stirred reaction mixture.
Since dityrosine is an intensely fluorescent compound, the fluorescence method can be applied to detect its formation. MPO (0.4 µM heme) and tyrosine-containing Hm-AMP2 (40 µM) or HM-AMP8 (40 µM) were mixed in a cuvette in 10 mM Na-phosphate buffer, pH 7.4. No emission peak characteristic of dityrosine was observed. Succeeding spectra were recorded at time intervals after H2O2 (50 µM) addition. Dityrosine formation was monitored by the increase in fluorescence intensity.

myeloperoxidase (MPO) [2] = molecular target: T1, myeloperoxidase (MPO); test: MPO peroxidase activity (Amplex Red assay); conditions: 0.8–50 μM peptide, 8 nM MPO heme, 50 μM Amplex Red, 25 μM H2O2, 50 mM K-phosphate pH 7.4
Experimental: MPO peroxidase activity was evaluated fluorometrically using Amplex Red^TM reagent which was oxidized by MPO to the fluorescent resorufin (λex = 530 nm, λem = 590 nm). The assay was performed in 96-plate format. The final reaction mixture in 50 mM K-phosphate buffer (pH 7.4) was as follows: MPO, 8 nM heme; peptide, […]; H2O2, 25 μM; Amplex Red reagent, 50 μM. MPO was preincubated with peptides for 5 min in a volume of 100 μl. Then, Amplex Red was added, and the enzymatic reaction was initiated by adding H2O2 (a final probe volume of 200 μL per well). The fluorescence measurement was made with a CLARIOstar multimodal plate reader (BMG Labtech, Ortenberg, Germany) at 5 min after the beginning of the reaction. To determine the type of CAMP-induced inhibition, KM and Vmax were obtained by varying substrates of MPO: Amplex Red in a final concentration from 1 to 62.5 μM, or H2O2 in a final concentration from 0.625 to 20 μM.
(§1) The Hannes-Wolf plots were made as ([Substrate]/V = f([Substrate]). KM was equal in magnitude to the intercept made on the abscissa axis by the approximating straight line; Vmax was calculated as a reciprocal value of the straight-line slope. The inhibition constant (Ki) for noncompetitive inhibition was calculated as follows: Ki = [I]/((Vmax − Vmax’)/Vmax’); Ki for competitive inhibition was calculated as follows: Ki = [I]/((KM’ − KM)/KM); Ki for mixed inhibition was calculated as follows: Ki = [I]/(((KM’ − KM)/KM)^2 + ((Vmax − Vmax’)/Vmax’))^2)^0.5; and Ki for uncompetitive inhibition was calculated as follows: Ki = [I]/(((KM − KM’)/KM’)^2 + ((Vmax – Vmax’)/Vmax’))^2)^0.5, where [I]—concentration of inhibitor (CAMP), KM—Michaelis constant without inhibitor, Vmax—maximal rate without inhibitor, KM’—Michaelis constant in the presence of inhibitor, Vmax’—maximal rate in the presence of inhibitor.
From the experiments with varying concentrations of H2O2 (0.01–200 μM) and Amplex Red (6.25–100 μM), the optimal concentrations of 25 μM H2O2 and 50 μM Amplex Red were chosen for further work. The 0.8–50 μM concentration range (corresponding to 100–6250 peptide molecules per heme) was used to determine the concentration dependence of the effect of CAMPs on peroxidase activity of MPO.

myeloperoxidase (MPO) [3] = molecular target: T1, myeloperoxidase (MPO); test: MPO chlorinating activity (Celestine Blue B assay); conditions: 0.008–8 μM peptide, 0.8 nM MPO heme, 200 μM CB, 150 mM NaCl, 50 μM H2O2, 50 mM Na-acetate pH 5.5
Experimental: MPO chlorinating activity was evaluated fluorometrically using Celestine Blue B (CB) which was oxidized to fluorescent glycol (λex = 487 nm, λem = 578 nm) by taurine N-chloramine produced in the reaction of taurine with HOCl generated by MPO [39]. The assay was performed in 96-plate format. MPO was preincubated with peptides for 5 min in a volume of 100 μL, with the concentrations being: MPO, 1.6 nM heme and peptide, 16 nM–16 μM. Then, 100 μL aliquots of CB-containing mix (CB, 400 µM; H2O2, 100 µM; taurine, 4 mM; KI, 10 µM; NaCl, 300 mM; 50 mM Na-acetate buffer, pH 5.5) were added to MPO/peptide and to 100 μL of HOCl standards (0–150 μM). The fluorescence measurement was made with a CLARIOstar multimodal plate reader (BMG Labtech, Ortenberg, Germany) at 15 min after the reaction started. Fluorescence intensity detected for HOCl standards of HOCl was used for calculating the chlorinating activity as mole of HOCl per mole of MPO heme per second. To determine the type of CAMP-induced inhibition, KM and Vmax were obtained by varying substrates of MPO: NaCl in a final concentration from 25 to 300 mM, or H2O2 in a final concentration from 5 to 80 µM.
as §1
Chlorinating activity is a distinctive feature of MPO as compared with other peroxidases and it is an important property, enabling MPO to combat microbes. We tested whether the inhibitory effects of pept_1545 and Hm-AMP8 on peroxidase activity extend to MPO chlorinating activity. Chlorinating activity was measured using a fluorometric CB-based assay. To determine the concentration dependence of the effect of CAMPs on MPO chlorinating activity, the 0.008–8 μM concentration range (corresponding to 10–10,000 peptide molecules per heme) was used.

T1 sequence (P05164 279-745 limits assumed): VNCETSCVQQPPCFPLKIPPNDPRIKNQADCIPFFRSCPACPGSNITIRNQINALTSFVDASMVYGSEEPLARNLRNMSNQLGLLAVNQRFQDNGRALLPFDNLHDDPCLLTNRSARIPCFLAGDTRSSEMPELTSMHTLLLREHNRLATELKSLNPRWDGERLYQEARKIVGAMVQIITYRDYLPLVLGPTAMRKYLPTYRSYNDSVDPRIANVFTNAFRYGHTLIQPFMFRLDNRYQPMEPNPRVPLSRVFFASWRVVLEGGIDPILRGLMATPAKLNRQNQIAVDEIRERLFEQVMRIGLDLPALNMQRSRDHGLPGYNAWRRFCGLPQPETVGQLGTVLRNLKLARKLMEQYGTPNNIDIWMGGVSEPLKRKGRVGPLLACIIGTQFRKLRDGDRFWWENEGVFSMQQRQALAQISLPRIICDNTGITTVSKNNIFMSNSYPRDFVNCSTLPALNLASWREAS
T1 sequence (P05164 165-273 limits assumed): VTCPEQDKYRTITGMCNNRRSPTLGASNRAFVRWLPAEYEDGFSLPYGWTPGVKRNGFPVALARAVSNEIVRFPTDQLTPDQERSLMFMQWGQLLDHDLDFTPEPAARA

Sequence: EKRWRRLIFNYF [Hm-AMP2, synthetic cationic antimicrobial peptide …]
- dityrosine formation (fluorescence) (myeloperoxidase (MPO) [1]): time-dependent generation of dityrosine; also recorded: diY formation
- effect on MPO peroxidase activity (myeloperoxidase (MPO) [2]): no inhibition; also recorded: No effect
- effect on MPO chlorinating activity (myeloperoxidase (MPO) [3]): no significant effect
